Data on 31 compounds can be found in patent US11807650B2, “NMDA receptor modulators and uses thereof” (Novartis AG, priority 2016, dated 2023).

The target in the experiment is T1, human GRIN1 (transcript variant NR1-3) and GRIN2D expressed in Xenopus oocytes (Homo sapiens, UniProt O15399).
T1 construct: GenScript (GRIN2D synthesis) SC115601; host or cells: Xenopus oocytes injected with cRNA (1 GluN1 : 2 GluN2)
T1 sequence (O15399 28-1336, other chains not shown): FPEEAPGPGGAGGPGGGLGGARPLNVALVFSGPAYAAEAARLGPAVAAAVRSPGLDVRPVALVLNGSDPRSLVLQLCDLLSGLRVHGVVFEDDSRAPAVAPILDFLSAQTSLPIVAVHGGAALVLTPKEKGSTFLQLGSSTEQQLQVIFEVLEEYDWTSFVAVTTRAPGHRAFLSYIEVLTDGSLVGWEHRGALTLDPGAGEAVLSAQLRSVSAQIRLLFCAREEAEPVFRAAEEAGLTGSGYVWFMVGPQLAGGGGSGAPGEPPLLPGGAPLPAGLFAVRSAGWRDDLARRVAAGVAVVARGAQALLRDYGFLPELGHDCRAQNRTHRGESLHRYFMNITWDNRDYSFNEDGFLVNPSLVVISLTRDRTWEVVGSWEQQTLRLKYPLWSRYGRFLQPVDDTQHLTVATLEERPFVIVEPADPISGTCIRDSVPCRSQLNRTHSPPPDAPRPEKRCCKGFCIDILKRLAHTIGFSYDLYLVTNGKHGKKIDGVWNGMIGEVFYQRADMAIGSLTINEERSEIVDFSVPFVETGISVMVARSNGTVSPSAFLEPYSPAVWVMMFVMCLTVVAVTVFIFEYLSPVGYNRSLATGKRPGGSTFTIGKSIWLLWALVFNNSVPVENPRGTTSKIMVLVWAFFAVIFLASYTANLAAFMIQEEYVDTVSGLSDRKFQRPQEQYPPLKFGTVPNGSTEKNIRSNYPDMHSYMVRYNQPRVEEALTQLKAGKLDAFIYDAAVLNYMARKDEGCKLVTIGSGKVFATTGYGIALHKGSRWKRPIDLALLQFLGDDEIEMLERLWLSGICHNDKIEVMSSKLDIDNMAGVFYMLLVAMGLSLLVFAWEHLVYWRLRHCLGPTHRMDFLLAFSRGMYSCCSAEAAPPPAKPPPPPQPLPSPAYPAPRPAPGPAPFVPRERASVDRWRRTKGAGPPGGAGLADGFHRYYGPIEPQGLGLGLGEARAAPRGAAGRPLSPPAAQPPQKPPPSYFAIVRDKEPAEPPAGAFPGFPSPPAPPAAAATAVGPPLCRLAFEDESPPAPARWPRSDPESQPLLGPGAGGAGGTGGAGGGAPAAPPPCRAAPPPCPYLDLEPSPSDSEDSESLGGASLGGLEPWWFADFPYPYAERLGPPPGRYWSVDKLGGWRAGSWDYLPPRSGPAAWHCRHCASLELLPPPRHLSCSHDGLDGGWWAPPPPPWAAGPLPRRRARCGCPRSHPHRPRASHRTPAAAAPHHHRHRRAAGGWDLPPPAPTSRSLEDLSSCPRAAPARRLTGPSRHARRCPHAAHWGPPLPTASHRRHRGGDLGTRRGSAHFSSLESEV
Kind of experiment: NR2D oocyte potentiation assay (two-electrode voltage clamp). In kind it is cell-based. Particulars: 10 uM test compound; glutamate and glycine 10 μM each; holding potential −40 mV. A digest of the protocol: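 Xenopus oocytes were defolliculated with collagenase, then injected with 50 nL of cRNA encoding human GluN1 (NR1-3 variant) and GluN2D mixed 1:2 and kept 72 h at 16° C. Two-electrode voltage clamp at −40 mV recorded currents; after 10 μM glutamate plus 10 μM glycine reached plateau, test compound was added until a new plateau formed.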
For orientation: Two-electrode voltage clamp holds a large cell at a set potential and records current.
Regarding `C[C@H]1CSc2nc(-c3cnc(C(C)(C)C)nc3)c(C#N)c(=N)n2C1` [Example 100, (R)-8-(2-(tert-butyl)pyrimidin-5-yl)-6-imino-3-methyl-3,4-dihydro-2H,6H-pyrimido[2,1-b][1,3]thiazine-7-carbonitrile], the activation at 10 µM is over 1000%. Still for that read-out and setting: the result for `C[C@@H]1CSc2nc(-c3cnc(C(C)(C)C)nc3)c(C#N)c(=N)n2C1` [Example 101, (S)-8-(2-(tert-butyl)pyrimidin-5-yl)-6-imino-3-methyl-3,4-dihydro-2H,6H-pyrimido[2,1-b][1,3]thiazine-7-carbonitrile] reads over 1000%; that for `CC(C)(C)c1ncc(-c2cc3n(c(=O)c2C#N)CCCS3)cc1F` [Example 102, 8-(6-(tert-butyl)-5-fluoropyridin-3-yl)-6-oxo-3,4-dihydro-2H,6H-pyrido[2,1-b][1,3]thiazine-7-carbonitrile], over 1000%. Still for that read-out and setting: the result for `CC1CSc2cc(-c3cnc(C(C)(C)C)c(F)c3)c(C#N)c(=O)n2C1` (stereo not shown) [Example 103, 8-(6-(tert-butyl)-5-fluoropyridin-3-yl)-3-methyl-6-oxo-3,4-dihydro-2H,6H-pyrido[2,1-b][1,3]thiazine-7-carbonitrile] reads over 1000%. On the same count and under the same terms, with `C[C@H]1CSc2cc(-c3cnc(C(C)(C)C)nc3)c(C#N)c(=O)n2C1` [Example 104, (R)-8-(2-(tert-butyl)pyrimidin-5-yl)-3-methyl-6-oxo-3,4-dihydro-2H,6H-pyrido[2,1-b][1,3]thiazine-7-carbonitrile] the figure was over 1000%.

On to `C[C@@H]1CSc2cc(-c3cnc(C(C)(C)C)nc3)c(C#N)c(=O)n2C1` [Example 105, (S)-8-(2-(tert-butyl)pyrimidin-5-yl)-3-methyl-6-oxo-3,4-dihydro-2H,6H-pyrido[2,1-b][1,3]thiazine-7-carbonitrile], for which the activation at 10 µM is over 1000%. The same measure, in the same setting: the result for `C[C@H]1CSc2cc(-c3cnc(C(C)(C)C)c(F)c3)c(C#N)c(=O)n2C1` [Example 106, (R)-8-(6-(tert-butyl)-5-fluoropyridin-3-yl)-3-methyl-6-oxo-3,4-dihydro-2H,6H-pyrido[2,1-b][1,3]thiazine-7-carbonitrile] reads over 1000%; that for `C[C@@H]1CSc2cc(-c3cnc(C(C)(C)C)c(F)c3)c(C#N)c(=O)n2C1` [Example 107, (S)-8-(6-(tert-butyl)-5-fluoropyridin-3-yl)-3-methyl-6-oxo-3,4-dihydro-2H,6H-pyrido[2,1-b][1,3]thiazine-7-carbonitrile], 500 to 1000%; that for `CC1CSc2nc(-c3ccc(C4(C)CC4)nc3)c(C#N)c(=O)n2C1` (stereo not shown) [Example 108, 3-methyl-8-(6-(1-methylcyclopropyl)pyridin-3-yl)-6-oxo-3,4-dihydro-2H,6H-pyrimido[2,1-b][1,3]thiazine-7-carbonitrile], 500 to 1000%. Take `CC1(c2ccc(-c3nc4n(c(=O)c3C#N)CCCS4)cn2)CC1` [Example 109, 8-[6-(1-methyl-cyclopropyl)pyridin-3-yl]-6-oxo-2H,3H, 4H,6H-pyrimido[2,1-b] [1,3]thiazine-7-carbonitrile]: the activation at 10 µM lay in the range of 500 to 1000%. `CC1(c2ccc(-c3nc4n(c(=O)c3C#N)CCCS4)cn2)CC1(F)F` (stereo not shown) [Example 110, 8-(6-(2,2-difluoro-1-methylcyclopropyl)pyridin-3-yl)-6-oxo-3,4-dihydro-2H,6H-pyrimido[2,1-b][1,3]thiazine-7-carbonitrile]: the activation at 10 µM fell in the range of 500 to 1000%. On the same count and under the same terms, the result for `CC1CSc2nc(-c3ccc(C4(C)CC4(F)F)nc3)c(C#N)c(=O)n2C1` (stereo not shown) [Example 111, 8-[6-(2,2-difluoro-1-methyl-cyclopropyl)pyridin-3-yl]-3-methyl-6-oxo-2H,3H,4H,6H-pyimido[2,1-b] [1,3]thiazine-7-carbonitrile] reads 500 to 1000%. Same read-out and setting: with `C[C@H]1CSc2nc(-c3cnc(C(C)(C)C)c(F)c3)c(C#N)c(=N)n2C1` [Example 112, (R)-8-(6-(tert-butyl)-5-fluoropyridin-3-yl)-6-imino-3-methyl-3,4-dihydro-2H,6H-pyrimido[2,1-b][1,3]thiazine-7-carbonitrile] the figure was over 1000%; with `C[C@@H]1CSc2nc(-c3cnc(C(C)(C)C)c(F)c3)c(C#N)c(=N)n2C1` [Example 113, (S)-8-(6-(tert-butyl)-5-fluoropyridin-3-yl)-6-imino-3-methyl-3,4-dihydro-2H,6H-pyrimido[2,1-b][1,3]thiazine-7-carbonitrile], over 1000%.

For the compound `C=C1CSc2nc(-c3ccc(C(C)(C)C)nc3)c(C#N)c(=O)n2C1` [Example 114, 8-(6-(tert-butyl)pyridin-3-yl)-3-methylene-6-oxo-3,4-dihydro-2H,6H-pyrimido[2,1-b][1,3]thiazine-7-carbonitrile], the activation at 10 µM is over 1000%. Still for that read-out and setting: with `C[C@H]1CSc2nc(-c3ccc(C4(C)CC4)nc3)c(C#N)c(=O)n2C1` [Example 115, (R)-3-methyl-8-(6-(1-methylcyclopropyl)pyridin-3-yl)-6-oxo-3,4-dihydro-2H,6H-pyrimido[2,1-b][1,3]thiazine-7-carbonitrile] the figure was 100 to 500%; with `C[C@@H]1CSc2nc(-c3ccc(C4(C)CC4)nc3)c(C#N)c(=O)n2C1` [Example 116, (S)-3-methyl-8-(6-(1-methylcyclopropyl)pyridin-3-yl)-6-oxo-3,4-dihydro-2H,6H-pyrimido[2,1-b][1,3]thiazine-7-carbonitrile], over 1000%. For `C[C@H]1CSc2cc(-c3ccc(C4(C)CC4)nc3)c(C#N)c(=O)n2C1` [Example 117, (R)-3-methyl-8-(6-(1-methylcyclopropyl)pyridin-3-yl)-6-oxo-3,4-dihydro-2H,6H-pyrido[2,1-b][1,3]thiazine-7-carbonitrile], the activation at 10 µM is over 1000%. Still for that read-out and setting: the result for `C[C@@H]1CSc2cc(-c3ccc(C4(C)CC4)nc3)c(C#N)c(=O)n2C1` [Example 118, (S)-3-methyl-8-(6-(1-methylcyclopropyl)pyridin-3-yl)-6-oxo-3,4-dihydro-2H,6H-pyrido[2,1-b][1,3]thiazine-7-carbonitrile] reads over 1000%; that for `COC(C)(C)c1ccc(-c2nc3n(c(=O)c2C#N)CC(C)CS3)cn1` (stereo not shown) [Example 119, 8-(6-(2-methoxypropan-2-yl)pyridin-3-yl)-3-methyl-6-oxo-3,4-dihydro-2H,6H-pyrimido[2,1-b][1,3]thiazine-7-carbonitrile], 10 to 100%. On the same count and under the same terms, the result for `COC(C)(C)c1ccc(-c2nc3n(c(=O)c2C#N)CCCS3)cn1` [Example 120] reads 10 to 100%. `CCOC(C)(C)c1ccc(-c2nc3n(c(=O)c2C#N)CC(C)CS3)cn1` (stereo not shown) [Example 121, 8-(6-(2-ethoxypropan-2-yl)pyridin-3-yl)-3-methyl-6-oxo-3,4-dihydro-2H,6H-pyrimido[2,1-b][1,3]thiazine-7-carbonitrile]: the “NR2D Oocyte % Potentiation @ 10 uM” value is listed as “Inhibitor”. Same read-out and setting: with `CCOC(C)(C)c1ccc(-c2nc3n(c(=O)c2C#N)CCCS3)cn1` [Example 122, 8-(6-(2-ethoxypropan-2-yl)pyridin-3-yl)-6-oxo-3,4-dihydro-2H,6H-pyrimido[2,1-b][1,3]thiazine-7-carbonitrile] the entry was “Inhibitor”. Take `COCC1CSc2nc(-c3ccc(C(C)(C)C)nc3)c(C#N)c(=O)n2C1` (stereo not shown) [Example 123, 8-(6-(tert-butyl)pyridin-3-yl)-3-(methoxymethyl)-6-oxo-3,4-dihydro-2H,6H-pyrimido[2,1-b][1,3]thiazine-7-carbonitrile]: the activation at 10 µM is 500 to 1000%.

Turning to `COCC1CSc2nc(-c3cnc(C(C)(C)C)nc3)c(C#N)c(=O)n2C1` (stereo not shown) [Example 124, 8-(2-(tert-butyl)pyrimidin-5-yl)-3-(methoxymethyl)-6-oxo-3,4-dihydro-2H,6H-pyrimido[2,1-b][1,3]thiazine-7-carbonitrile], the activation at 10 µM fell in the range of 500 to 1000%. On the same count and under the same terms, the result for `COCC1CSc2nc(-c3cnc(C(C)(C)C)c(F)c3)c(C#N)c(=O)n2C1` (stereo not shown) [Example 125, 8-(6-(tert-butyl)-5-fluoropyridin-3-yl)-3-(methoxymethyl)-6-oxo-3,4-dihydro-2H,6H-pyrimido[2,1-b][1,3]thiazine-7-carbonitrile] reads over 1000%; that for `CC1CSc2nc(-c3cnc(C(C)(C)C)c(O)c3)c(C#N)c(=O)n2C1` (stereo not shown) [Example 126, 8-(6-(tert-butyl)-5-hydroxypyridin-3-yl)-3-methyl-6-oxo-3,4-dihydro-2H,6H-pyrimido[2,1-b][1,3]thiazine-7-carbonitrile], over 1000%. Regarding `CC(C)(C)c1ncc(-c2nc3n(c(=O)c2C#N)CCCS3)cc1O` [Example 127, 8-(6-(tert-butyl)-5-hydroxypyridin-3-yl)-6-oxo-3,4-dihydro-2H,6H-pyrimido[2,1-b][1,3]thiazine-7-carbonitrile], the activation at 10 µM is over 1000%. Still for that read-out and setting: the result for `CN(C)C(C)(C)c1ccc(-c2nc3n(c(=O)c2C#N)CCCS3)cn1` [Example 128, 8-(6-(2-(dimethylamino)propan-2-yl)pyridin-3-yl)-6-oxo-3,4-dihydro-2H,6H-pyrimido[2,1-b][1,3]thiazine-7-carbonitrile] reads under 10%; that for `CC(C)(C)c1ccc(-c2nc3n(c(=O)c2C#N)C[C@@H](CO)CS3)cn1` [Example 129, (S)-8-(6-(tert-butyl)pyridin-3-yl)-3-(hydroxymethyl)-6-oxo-3,4-dihydro-2H,6H-pyrimido[2,1-b][1,3]thiazine-7-carbonitrile], over 1000%; that for `CC(C)(C)c1ccc(-c2nc3n(c(=O)c2C#N)C[C@H](CO)CS3)cn1` [Example 130, (R)-8-(6-(tert-butyl)pyridin-3-yl)-3-(hydroxymethyl)-6-oxo-3,4-dihydro-2H,6H-pyrimido[2,1-b][1,3]thiazine-7-carbonitrile], 100 to 500%.
